Patent US9938261B2, “Heterocyclic compounds and methods of use thereof” (AMBIT BIOSCIENCES CORPORATION, priority 2011, dated 2018)
Where two headings read alike, the source gives them in different places.

Assays:
KIT = target: T1, KIT (Homo sapiens, UniProt P10721); assay: Competition binding assay, KIT Kd
T1 construct: made in house
How it was run: (§1)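 Compound displacement of kinase from bead-immobilized ligand is measured by qPCR after 1 h equilibration at room temperature. Kinases are T7 phage fusions or DNA-tagged HEK-293 products.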

CSF1R = CSF1R (Homo sapiens, UniProt P07333); assay: Competition binding assay, CSF1R Kd; set-up: made in house
Chain of CSF1R (P07333 20-972): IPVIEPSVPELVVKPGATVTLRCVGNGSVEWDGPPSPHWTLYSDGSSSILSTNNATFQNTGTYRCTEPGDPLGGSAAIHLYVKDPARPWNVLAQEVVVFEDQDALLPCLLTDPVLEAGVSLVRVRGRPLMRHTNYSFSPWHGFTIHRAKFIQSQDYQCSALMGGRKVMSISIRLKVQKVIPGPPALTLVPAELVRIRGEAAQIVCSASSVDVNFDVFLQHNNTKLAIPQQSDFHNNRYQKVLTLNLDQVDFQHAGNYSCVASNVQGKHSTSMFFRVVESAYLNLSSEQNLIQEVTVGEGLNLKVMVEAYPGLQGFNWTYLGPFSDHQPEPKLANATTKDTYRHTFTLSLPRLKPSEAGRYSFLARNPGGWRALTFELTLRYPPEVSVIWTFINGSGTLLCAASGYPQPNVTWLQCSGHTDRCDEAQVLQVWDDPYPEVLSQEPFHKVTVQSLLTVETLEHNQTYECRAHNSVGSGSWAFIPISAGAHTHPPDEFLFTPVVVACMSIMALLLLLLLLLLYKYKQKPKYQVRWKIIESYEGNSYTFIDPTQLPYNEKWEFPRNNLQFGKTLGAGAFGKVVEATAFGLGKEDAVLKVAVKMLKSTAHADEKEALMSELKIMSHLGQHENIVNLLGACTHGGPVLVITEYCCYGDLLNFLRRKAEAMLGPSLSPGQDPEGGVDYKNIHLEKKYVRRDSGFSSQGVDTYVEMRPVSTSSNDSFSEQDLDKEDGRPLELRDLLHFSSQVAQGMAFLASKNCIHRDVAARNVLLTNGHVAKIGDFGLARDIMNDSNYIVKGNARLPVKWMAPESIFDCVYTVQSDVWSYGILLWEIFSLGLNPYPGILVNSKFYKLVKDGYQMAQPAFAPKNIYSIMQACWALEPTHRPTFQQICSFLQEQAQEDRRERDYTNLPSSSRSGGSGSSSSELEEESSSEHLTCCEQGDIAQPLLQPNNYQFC
How it was run: as §1

[1] = target: kinase panel containing either 386 or 392 distinct kinases; assay: Kinase selectivity score S10 from competition binding panel
How it was run: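 S10 is the number of kinases with percent-of-control under 10, divided by all distinct wild-type kinases tested, from a single 10 μM concentration. Binding measured by qPCR of kinase recovered from ligand-coated beads after 1 h equilibrium at room temperature; kinases were phage fusions or DNA-tagged HEK-293 products.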

FLT3 = target: T2, FLT3 (Homo sapiens, UniProt P36888); assay: Competition binding assay, FLT3 Kd
T2 construct: made in house
T2 sequence (P36888 27-993): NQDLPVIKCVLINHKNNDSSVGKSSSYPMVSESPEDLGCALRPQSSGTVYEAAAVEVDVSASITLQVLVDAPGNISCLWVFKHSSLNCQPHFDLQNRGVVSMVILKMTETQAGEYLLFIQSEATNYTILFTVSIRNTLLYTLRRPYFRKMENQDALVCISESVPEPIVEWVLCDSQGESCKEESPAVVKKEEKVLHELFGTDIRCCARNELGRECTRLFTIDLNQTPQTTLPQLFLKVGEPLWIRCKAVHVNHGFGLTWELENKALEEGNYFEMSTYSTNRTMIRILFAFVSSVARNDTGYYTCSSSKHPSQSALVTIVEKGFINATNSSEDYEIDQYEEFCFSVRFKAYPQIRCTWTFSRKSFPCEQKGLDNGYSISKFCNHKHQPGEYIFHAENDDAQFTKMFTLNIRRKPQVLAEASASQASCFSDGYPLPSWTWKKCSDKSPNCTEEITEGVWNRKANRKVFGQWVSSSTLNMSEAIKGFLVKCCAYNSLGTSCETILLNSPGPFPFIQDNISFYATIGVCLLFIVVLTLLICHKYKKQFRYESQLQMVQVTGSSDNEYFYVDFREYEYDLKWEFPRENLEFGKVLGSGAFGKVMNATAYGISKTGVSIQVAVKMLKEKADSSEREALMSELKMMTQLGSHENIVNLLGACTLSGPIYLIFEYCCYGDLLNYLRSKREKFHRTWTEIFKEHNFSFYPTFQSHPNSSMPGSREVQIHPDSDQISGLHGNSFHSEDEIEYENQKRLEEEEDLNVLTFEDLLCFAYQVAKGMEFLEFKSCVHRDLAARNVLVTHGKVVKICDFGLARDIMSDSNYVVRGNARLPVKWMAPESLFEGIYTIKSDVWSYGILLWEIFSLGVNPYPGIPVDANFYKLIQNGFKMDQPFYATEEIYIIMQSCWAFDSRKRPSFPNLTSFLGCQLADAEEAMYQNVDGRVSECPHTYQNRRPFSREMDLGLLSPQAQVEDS
How it was run: as §1

[2] = compounds at 10 μM, 386 or 392 distinct kinases
[3] = 10 μM, panel of 386 or 392 distinct kinases

T1 sequence (P10721 26-976): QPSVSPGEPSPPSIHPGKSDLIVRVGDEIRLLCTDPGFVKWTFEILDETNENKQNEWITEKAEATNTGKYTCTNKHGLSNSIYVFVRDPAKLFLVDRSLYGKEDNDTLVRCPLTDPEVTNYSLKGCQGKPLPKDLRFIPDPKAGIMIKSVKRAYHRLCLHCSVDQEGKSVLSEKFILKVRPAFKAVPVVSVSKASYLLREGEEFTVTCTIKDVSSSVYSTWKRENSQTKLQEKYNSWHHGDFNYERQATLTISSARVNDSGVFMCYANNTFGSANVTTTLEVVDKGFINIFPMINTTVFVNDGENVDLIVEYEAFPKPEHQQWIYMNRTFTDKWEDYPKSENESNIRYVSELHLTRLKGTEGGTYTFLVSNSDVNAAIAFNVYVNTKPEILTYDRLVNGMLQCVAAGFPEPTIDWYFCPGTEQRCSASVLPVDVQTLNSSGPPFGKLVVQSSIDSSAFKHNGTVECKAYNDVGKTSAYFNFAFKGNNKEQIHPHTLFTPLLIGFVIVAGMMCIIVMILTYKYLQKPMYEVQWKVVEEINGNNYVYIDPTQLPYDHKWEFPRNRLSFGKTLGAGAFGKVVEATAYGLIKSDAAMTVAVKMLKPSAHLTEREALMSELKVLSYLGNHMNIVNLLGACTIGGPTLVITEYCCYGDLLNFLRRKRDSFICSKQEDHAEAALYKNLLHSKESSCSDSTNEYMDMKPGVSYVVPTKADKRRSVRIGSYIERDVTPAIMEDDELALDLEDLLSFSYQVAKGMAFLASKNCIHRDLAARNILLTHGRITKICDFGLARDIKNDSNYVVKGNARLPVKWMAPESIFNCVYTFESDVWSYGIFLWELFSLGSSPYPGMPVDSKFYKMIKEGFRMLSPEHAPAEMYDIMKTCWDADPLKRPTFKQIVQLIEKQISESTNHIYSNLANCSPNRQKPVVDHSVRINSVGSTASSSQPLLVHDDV

| Compound | Kd (KIT) | Kd (CSF1R) | Kinase specificity S(10) [1, 2] | Kd (FLT3) | Kd (KIT; competition binding) | Kd (CSF1R; competition binding) | Kinase specificity S(10) [1, 3] | Kd (FLT3; competition binding) |
| --- | --- | --- | --- | --- | --- | --- | --- | --- |
| COc1cc2c(cc1C#N)ncn2Cc1ccc2nc(N[C@@H]3CCCC[C@H]3O)sc2c1 [Example 65, 1-((2-(((1R,2R)-2-hydroxycyclohexyl)amino)benzo[d]thiazol-6-yl)methyl)-6-methoxy-1H-benzo[d]imidazole-5-carbonitrile] | 500 to 2000 nM | 5 to 20 nM | B (0.01<B≤0.02) | 1000 to 5000 nM | – | – | – | – |
| O[C@@H]1CCCC[C@H]1Nc1nc2ccc(Cn3cnc4cc(C(F)(F)F)cnc43)cc2s1 [Example 212, (1R,2R)-2-((6-((6-(trifluoromethyl)-3H-imidazo[4,5-b]pyridin-3-yl)methyl)benzo[d]thiazol-2-yl)amino)cyclohexanol] | – | – | – | – | ≤ 100 nM | 5 to 20 nM | A (A≤0.01) | 200 to 1000 nM |
| O[C@@H]1CCCC[C@H]1Nc1nc2ccc(Cc3cnc4cc(-n5nccn5)ccn34)cc2s1 [Example 215, (1R,2R)-2-((6-((7-(2H-1,2,3-triazol-2-yl)imidazo[1,2-a]pyridin-3-yl)methyl)benzo[d]thiazol-2-yl)amino)cyclohexanol] | – | – | – | – | 500 to 2000 nM | 5 to 20 nM | A (A≤0.01) | 1000 to 5000 nM |
| CC(=O)c1ccn2c(Cc3ccc4nc(N[C@@H]5CCCC[C@H]5O)sc4c3)cnc2c1 [Example 200, 1-(3-((2-(((1R,2R)-2-hydroxycyclohexyl)amino)benzo[d]thiazol-6-yl)methyl)imidazo[1,2-a]pyridin-7-yl)ethanone] | – | – | – | – | 500 to 2000 nM | 5 to 20 nM | A (A≤0.01) | > 5000 nM |
| O[C@@H]1CCCC[C@H]1Nc1nc2ccc(Cn3cnc4cc(-c5cccnc5)cnc43)cc2s1 [Example 40, (1R,2R)-2-((6-((6-(pyridin-3-yl)-3H-imidazo[4,5-b]pyridin-3-yl)methyl)benzo[d]thiazol-2-yl)amino)cyclohexanol] | ≤ 100 nM | ≤ 5 nM | B (0.01<B≤0.02) | ≤ 200 nM | – | – | – | – |
| CS(=O)(=O)c1ccc2ncn(Cc3ccc4nc(N[C@@H]5CCCC[C@H]5O)sc4c3)c2n1 [Example 106, (1R,2R)-2-((6-((5-(methylsulfonyl)-3H-imidazo[4,5-b]pyridin-3-yl)methyl)benzo[d]thiazol-2-yl)amino)cyclohexanol] | – | – | – | – | 500 to 2000 nM | 20 to 50 nM | A (A≤0.01) | 200 to 1000 nM |
| CC(=O)NCc1cnc2c(c1)ncn2Cc1ccc2nc(N[C@@H]3CCCC[C@H]3O)sc2c1 [Example 99, N-((3-((2-(((1R,2R)-2-hydroxycyclohexyl)amino)benzo[d]thiazol-6-yl)methyl)-3H-imidazo[4,5-b]pyridin-6-yl)methyl)acetamide] | > 2000 nM | > 50 nM | A (A≤0.01) | 1000 to 5000 nM | – | – | – | – |
| O=C1CCCC[C@H]1Nc1nc2ccc(Cn3cnc4cccnc43)cc2s1 [Example 54, (R)-2-((6-((3H-imidazo[4,5-b]pyridin-3-yl)methyl)benzo[d]thiazol-2-yl)amino)cyclohexanone] | 100 to 500 nM | 20 to 50 nM | A (A≤0.01) | > 5000 nM | – | – | – | – |
| O[C@@H]1Cc2ccccc2[C@H]1Nc1nc2ccc(Cn3cnc4cc(Br)cnc43)cc2o1 [Example 62, (1R,2R)-1-((6-((6-bromo-3H-imidazo[4,5-b]pyridin-3-yl)methyl)benzo[d]oxazol-2-yl)amino)-2,3-dihydro-1H-inden-2-ol] | ≤ 100 nM | ≤ 5 nM | C (C>0.02) | 200 to 1000 nM | – | – | – | – |
| Fc1cnc2c(c1)ncn2Cc1ccc2nc(N[C@@H]3CCCC[C@H]3Cl)sc2c1 [Example 198, N-((1R,2R)-2-chlorocyclohexyl)-6-((6-fluoro-3H-imidazo[4,5-b]pyridin-3-yl)methyl)benzo[d]thiazol-2-amine] | – | – | – | – | 100 to 500 nM | ≤ 5 nM | B (0.01<B≤0.02) | 1000 to 5000 nM |
| N#Cc1ccc2ncn(Cc3ccc4nc(N[C@@H]5CCCC[C@H]5O)sc4c3)c2n1 [Example 87, 3-((2-(((1R,2R)-2-hydroxycyclohexyl)amino)benzo[d]thiazol-6-yl)methyl)-3H-imidazo[4,5-b]pyridine-5-carbonitrile] | ≤ 100 nM | ≤ 5 nM | B (0.01<B≤0.02) | 200 to 1000 nM | – | – | – | – |
| OCc1cnc2c(c1)ncn2Cc1ccc2nc(N[C@@H]3CCCC[C@H]3O)sc2c1 [Example 84, (1R,2R)-2-((6-((6-(hydroxymethyl)-3H-imidazo[4,5-b]pyridin-3-yl)methyl)benzo[d]thiazol-2-yl)amino)cyclohexanol] | 100 to 500 nM | 5 to 20 nM | A (A≤0.01) | 1000 to 5000 nM | – | – | – | – |
| CSCc1cnc2c(c1)ncn2Cc1ccc2nc(N[C@@H]3CCCC[C@H]3O)sc2c1 [Example 86, (1R,2R)-2-((6-((6-((methylthio)methyl)-3H-imidazo[4,5-b]pyridin-3-yl)methyl)benzo[d]thiazol-2-yl)amino)cyclohexanol] | ≤ 100 nM | 5 to 20 nM | C (C>0.02) | 200 to 1000 nM | – | – | – | – |
| COc1cc2ncn(Cc3ccc4nc(N[C@@H]5CCCC[C@H]5O)sc4c3)c2cc1C#N [Example 53, 1-((2-(((1R,2R)-2-hydroxycyclohexyl)amino)benzo[d]thiazol-6-yl)methyl)-5-methoxy-1H-benzo[d]imidazole-6-carbonitrile] | 100 to 500 nM | 5 to 20 nM | B (0.01<B≤0.02) | 1000 to 5000 nM | – | – | – | – |
| COc1cc2ncn(Cc3ccc4nc(N[C@@H]5CCCC[C@H]5O)sc4c3)c2cc1Br [Example 47, (1R,2R)-2-((6-((6-bromo-5-methoxy-1H-benzo[d]imidazol-1-yl)methyl)benzo[d]thiazol-2-yl)amino)cyclohexanol] | ≤ 100 nM | 5 to 20 nM | B (0.01<B≤0.02) | 200 to 1000 nM | – | – | – | – |
| O[C@@H]1CCCC[C@H]1Nc1nc2ccc(Cn3cnc4cc(C5CC5)cnc43)cc2s1 [Example 45, (1R,2R)-2-((6-((6-cyclopropyl-3H-imidazo[4,5-b]pyridin-3-yl)methyl)benzo[d]thiazol-2-yl)amino)cyclohexanol] | ≤ 100 nM | ≤ 5 nM | B (0.01<B≤0.02) | 200 to 1000 nM | – | – | – | – |
| COc1ccn2c(Cc3ccc4nc(N[C@@H]5CCCC[C@H]5O)sc4c3)cnc2c1 [Example 44, (1R,2R)-2-((6-((7-methoxyimidazo[1,2-a]pyridin-3-yl)methyl)benzo[d]thiazol-2-yl)amino)cyclohexanol] | 500 to 2000 nM | 5 to 20 nM | A (A≤0.01) | > 5000 nM | – | – | – | – |
| O[C@@H]1Cc2ccccc2[C@H]1Nc1nc2ccc(Cn3cnc4cccnc43)cc2o1 [Example 57, (1R,2R)-1-((6-((3H-imidazo[4,5-b]pyridin-3-yl)methyl)benzo[d]oxazol-2-yl)amino)-2,3-dihydro-1H-inden-2-ol] | ≤ 100 nM | ≤ 5 nM | C (C>0.02) | 200 to 1000 nM | – | – | – | – |
| either (1R,2R)-2-((6-((3H-imidazo[4,5-b]pyridin-3-yl)methyl)benzo[d]thiazol-2-yl)amino)-1-methylcyclohexanol or (1S,2R)-2-((6-((3H-imidazo[4,5-b]pyridin-3-yl)methyl)benzo[d]thiazol-2-yl)amino)-1-methylcyclohexanol [Example 60] | 100 to 500 nM | 5 to 20 nM | B (0.01<B≤0.02) | 1000 to 5000 nM | – | – | – | – |
| C#Cc1cnc2c(c1)ncn2Cc1ccc2nc(N[C@@H]3CCCC[C@H]3O)sc2c1 [Example 96, (1R,2R)-2-((6-((6-ethynyl-3H-imidazo[4,5-b]pyridin-3-yl)methyl)benzo[d]thiazol-2-yl)amino)cyclohexanol] | ≤ 100 nM | 5 to 20 nM | C (C>0.02) | ≤ 200 nM | – | – | – | – |
| OCC1(CNc2nc3ccc(Cn4cnc5cccnc54)cc3s2)CCCCC1 [Example 76, (1-(((6-((3H-imidazo[4,5-b]pyridin-3-yl)methyl)benzo[d]thiazol-2-yl)amino)methyl)cyclohexyl)methanol] | ≤ 100 nM | ≤ 5 nM | C (C>0.02) | ≤ 200 nM | – | – | – | – |
